Assay results taken from PubChem BioAssay (NCI).
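Assay format: 96-well plates, 48-hour exposure. TGI: total growth inhibition.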

Legend:
Assay in all cases: NCI tumour cell line growth inhibition, 48 h
CCRF-CEM leukemia = system: CCRF-CEM leukemia
SNB-19 CNS = system: SNB-19 CNS
A498 renal = system: A498 renal
HOP-62 NSCLC = system: HOP-62 NSCLC
EKVX NSCLC = system: EKVX NSCLC
NCI-H23 lung = system: NCI-H23 lung
HCT-15 colon = system: HCT-15 colon
RXF 393 renal = system: RXF 393 renal
SF-268 CNS = system: SF-268 CNS
SF-539 CNS = system: SF-539 CNS
T-47D breast = system: T-47D breast
SNB-75 CNS = system: SNB-75 CNS
786-0 renal = system: 786-0 renal
NCI/ADR-RES ovarian = system: NCI/ADR-RES ovarian
HOP-92 NSCLC = system: HOP-92 NSCLC
SR leukemia = system: SR leukemia
MDA-MB-231 breast = system: MDA-MB-231 breast
SW-620 colon = system: SW-620 colon
UACC-62 melanoma = system: UACC-62 melanoma
KM12 colon = system: KM12 colon

| Structure (SMILES) | TGI (CCRF-CEM leukemia) | TGI (SNB-19 CNS) | TGI (A498 renal) | TGI (HOP-62 NSCLC) | TGI (EKVX NSCLC) | TGI (NCI-H23 lung) | TGI (HCT-15 colon) | TGI (RXF 393 renal) | TGI (SF-268 CNS) | TGI (SF-539 CNS) | TGI (T-47D breast) | TGI (SNB-75 CNS) | TGI (786-0 renal) | TGI (NCI/ADR-RES ovarian) | TGI (HOP-92 NSCLC) | TGI (SR leukemia) | TGI (MDA-MB-231 breast) | TGI (SW-620 colon) | TGI (UACC-62 melanoma) | TGI (KM12 colon) |
| --- | --- | --- | --- | --- | --- | --- | --- | --- | --- | --- | --- | --- | --- | --- | --- | --- | --- | --- | --- | --- |
| CCOC(=O)C(=CNc1ccc(S(N)(=O)=O)cc1)C(=O)OCC | > 100 µM | > 100 µM | > 100 µM | > 100 µM | > 100 µM | > 100 µM | > 100 µM | > 100 µM | > 100 µM | > 100 µM | > 100 µM | > 100 µM | > 100 µM | > 100 µM | > 100 µM | > 100 µM | > 100 µM | > 100 µM |  |  |
| C/C(=N\N)C(CN1CCOCC1)C(c1ccccc1)c1c(O)c2ccccc2oc1=O (stereo not given) | > 100 µM | > 100 µM | > 100 µM | > 100 µM | > 100 µM | > 100 µM | > 100 µM | > 51.9 µM | > 100 µM | > 100 µM | > 100 µM | > 100 µM | > 100 µM | > 100 µM | > 100 µM | > 100 µM | > 100 µM | > 100 µM | > 100 µM | > 100 µM |
| Cc1cn(CCCCOC(=O)NC(CCCN=C(N)N)C(=O)O)c(=O)[nH]c1=O (stereo not given) | > 100 µM | > 100 µM | > 100 µM | > 100 µM | > 100 µM | > 100 µM | > 100 µM | > 100 µM | > 100 µM | > 100 µM | > 100 µM | > 100 µM | > 100 µM | > 100 µM | > 100 µM | > 100 µM | > 100 µM | > 100 µM | > 100 µM | > 100 µM |
| C/C(CC(O)(C(F)(F)F)C(F)(F)F)=N\NC(N)=S | > 10 µM | > 10 µM | > 10 µM | > 10 µM | > 10 µM | > 10 µM | > 10 µM | > 10 µM | > 10 µM | > 10 µM | > 10 µM | > 10 µM | > 10 µM | > 10 µM | > 10 µM | > 10 µM | > 10 µM | > 10 µM | > 10 µM | > 10 µM |
| COC(=O)c1ccc(NCC2=CC(=O)C=CC2=O)cc1O | > 100 µM | 48.3 µM | 32.8 µM | 34.5 µM | 31.6 µM | 36.6 µM | 34.5 µM | 44 µM | > 100 µM | 28 µM | 47.1 µM | 42.9 µM | 31.4 µM | 47 µM | 9.27 µM | > 100 µM | 34.7 µM | > 100 µM | 30.4 µM |  |
| Cc1c(C)c(S(=O)(=O)N(CCCN)OCCCN)c(C)c2c1OC(C)(C)CC2 | 27.6 µM | 24.9 µM | 26.2 µM | 27.2 µM | 30.4 µM | 27.9 µM | 29.3 µM | 21.4 µM | 26.9 µM |  | 33.5 µM | 23.4 µM | 29.4 µM | 60.1 µM | 19.9 µM | 33.4 µM | 17.6 µM | 29 µM | 28 µM | 25.6 µM |
| CCCCCCCCCCCCCC(=O)OCC(CCS(=O)(=O)O[C@H]1CC[C@@]2(C)C(=CC[C@@H]3C2CC[C@]2(C)C(=O)CCC32)C1)OC(=O)CCCCCCCCCCCCC (stereo not given in full) | > 100 µM | > 100 µM | > 100 µM | > 100 µM | > 100 µM | > 100 µM | > 100 µM | > 100 µM | > 100 µM | > 100 µM | > 100 µM | > 100 µM | > 100 µM | > 100 µM | > 100 µM | > 100 µM | > 100 µM | > 100 µM | > 100 µM | > 100 µM |
| C=C(C)[C@@]12C[C@H](OC(=O)[C@H](O)[C@@H](NC(=O)c3ccccc3)c3ccccc3)C(C)=C1[C@@H](OC(C)=O)C(=O)[C@@]1(C)C([C@@H]2OC(=O)c2cc(F)cc(F)c2)C2(OC(C)=O)CO[C@@H]2C[C@@H]1O (stereo not given in full) | 0.355 µM | > 10 µM | 3.03 µM | > 5.79 µM | > 10 µM | 3.14 µM | > 5.21 µM | 0.582 µM | > 7.16 µM | 0.259 µM | > 8.57 µM | 0.973 µM | 3.3 µM | 6.63 µM | > 10 µM | > 3.64 µM | 2.22 µM | > 10 µM | 3.26 µM | > 3.26 µM |
| NC1=Nc2ccccc2Sc2nccn21 | 75.3 µM | > 100 µM | 75.8 µM | 57.4 µM | > 100 µM | 52.2 µM | 59.7 µM | 56.5 µM | 88.4 µM | 56.1 µM | 98.9 µM | 54.3 µM | 57.9 µM | 72 µM | 40.8 µM | 80.8 µM | 35.9 µM | > 100 µM | > 100 µM | 69.9 µM |
| COc1ccc2c(c1)c1ccc3c(c1n2C)C(=O)C=CC3=O | 2.47 µM | 53 µM | 53.5 µM | 66.5 µM | 35.7 µM | 32.2 µM | 10.9 µM | 10.4 µM | 31.8 µM | 28 µM | 6.25 µM | 68.9 µM | 14.7 µM | 42.7 µM | 14.5 µM | 5.59 µM | 12.1 µM | 10.7 µM | 29.3 µM | 35.8 µM |
| N#CC12CC(C=O)=C(N)C1(C#N)CC(C=O)=C2N (stereo not given) | > 100 µM | > 100 µM | > 100 µM | > 100 µM | > 100 µM | > 100 µM | 38.5 µM | > 100 µM | > 100 µM | > 100 µM | > 100 µM | > 100 µM | > 100 µM | > 100 µM | > 100 µM | > 100 µM | > 100 µM | > 100 µM | > 100 µM | > 100 µM |
| Cc1ccc2c(ccc3ncc(CNc4ccc(NS(C)(=O)=O)cc4)c32)[nH]1 | > 100 µM | > 100 µM | 33.8 µM | 67.2 µM | > 100 µM | 58.7 µM | > 100 µM | 21.7 µM | 52.5 µM | 50.5 µM | 47.7 µM | 34 µM | 39.4 µM | > 100 µM | 90.3 µM | 50.8 µM | 74.5 µM | > 100 µM | 34.2 µM | 36.6 µM |
| C[C@H](CCC(=O)O)[C@H]1CC[C@H]2[C@@H]3[C@@H](O)C[C@@H]4C[C@H](O)CC[C@]4(C)[C@H]3C[C@H](O)[C@]12C | > 100 µM | > 100 µM | > 100 µM | > 100 µM | > 100 µM | > 100 µM | > 100 µM | > 100 µM | > 100 µM | > 100 µM | > 100 µM | > 100 µM | > 100 µM | > 100 µM | > 100 µM | > 100 µM | > 100 µM | > 100 µM | > 100 µM | > 100 µM |
| COC(=O)c1ccc(Oc2nc3ccc(C(F)(F)F)cc3nc2-c2ccccc2)cc1 | > 100 µM |  | > 100 µM | > 100 µM | > 100 µM | > 100 µM | > 100 µM | > 100 µM | > 100 µM | > 100 µM | > 100 µM | > 100 µM | > 100 µM | > 100 µM | > 100 µM | > 100 µM | > 100 µM | > 100 µM | > 100 µM | > 100 µM |
